Literature values in patent US7205008B2, “Methods of treating Alzheimer's disease and other amyloidoses using Hypericum perforatum and derivatives thereof” (ProteoTech, Inc., priority 2000, dated 2007).

In the case of `Cc1cc(O)c2c(=O)c3c(O)cc(O)c4c5c(O)cc(O)c6c(=O)c7c(O)cc(C)c8c1c2c(c34)c(c78)c65` [hypericin], the “fraction of hypericin absorbed” value (after swallowing a pill of Hypericum perforatum, estimated) is listed as “about 20%” and the “time it lasts in the bloodstream” value (dose of 0.75 mg of hypericin) is listed as “more than a day”.
